Values quoted from earlier work in US20070065374A1, “Nanoparticulate leukotriene receptor antagonist/corticosteroid formulations” (Elan Pharma International Limited, priority 2005, published 2007).
Read-outs that look alike come from different tables or passages of the source.

Experiments:
[1] = for time to peak plasma concentrations: after oral administration
[2] = since the approval of zafirlukast

effect of food on oral bioavailability ([1]; 5 mg tablet (pediatric dose)) | effect of food on oral bioavailability ([1]; 10 mg tablet (adult dose)) | time to peak plasma concentrations [1] | Churg-Strauss syndrome reported [2] | reduction of bioavailability by food ([1]; oral, in 75% of patients) | Compound
reduced by food | unaffected by food | approximately three | – | – | CC(C)(O)c1ccccc1CC[C@@H](SCC1(CC(=O)O)CC1)c1cccc(/C=C/c2ccc3ccc(Cl)cc3n2)c1 [Montelukast]
– | – | approximately three | at least eight | approximately 40% | COc1cc(C(=O)NS(=O)(=O)c2ccccc2C)ccc1Cc1cn(C)c2ccc(NC(=O)OC3CCCC3)cc12 [Zafirlukast]
